Ends that are not written are not given here.
What was measured:
Assay type in all cases: cell-based, human
[1] = system: CD8+ T cells from HIV+ subjects; assay: Intracellular cytotoxin staining (ICS: perforin, GrzA, GrzB, CD107a), CD8+ T cells from HIV+ subjects; set-up: key to CD8^+ T-cell cytotoxins (8C): positive (+); negative (−) response; inhibitory (↓); not done (n); conditions: for CD8^+ T-cell cytotoxins (8C): HIV^+ subjects compared to HIV^− control group
Method: (§1) Briefly, 1×10^6PBMCs (freshly isolated) are stimulated with 20 μg of peptides for 6 hours in a total volume of 200 μL in a 96-well plate in presence of Golgi transport inhibitor (37° C., 5% CO2). The cells are processed as previously described (Horton et al. (2007)). Cells were stained with the LIVE/DEAD® fixable yellow dye (Invitrogen, Eugene, Oreg.). The monoclonal antibodies fluorochome-conjugated to human cytokines used are: APC-H7 to CD3 (clone SK7); BD Horizon V450 to CD4 (clone RPA-T4); Qdot to CD8 (clone 3B5); PE-cy7 to IFN-γ (clone 4S.B3); APC to IL-2 (clone MQ1-17H12) PerCP to perforin (clone B-D48); Alexa F1.700 to granzyme-B (clone GB11) and PE to granzyme-A (clone CB9). The flow cytometry data is collected using BD LSRII and analyzed with the FACS DIVA software.
(§2) The ICS analysis (Horton et al. (2007)) involved stimulating 0.5-1.0×10^6 freshly isolated PBMC for 6 h with the same peptide stimulant and culture conditions as the proliferation analysis in the presence of 1 μg/mL of Golgi transport inhibitor and monensin followed by labeling with LIVE/DEAD fixable yellow dye and then treatment with anti-CD16/CD32 antibody and T-cell phenotypic antibodies. The cells were subsequently fixed and permeabilized with Cytofix/Cytoperm solution (BD Biosciences) before reaction with anti-cytotoxin antibodies. The antibodies consisted of anti-CD3 APC-H7, anti-CD4 BD Horizon V450, and anti-CD8 FITC followed by anti-GrzB Alexa 700 and anti-GrzA PE (all from BD Biosciences), and anti-perforin PerCP (Abcam, Boston, Mass.).
(§3) In both analyses, 1.0-2.0×10^4 cells were fixed in phosphate-buffered saline (PBS) containing 2% paraformaldehyde and analyzed on BD LSRII using […] Software (BD Biosciences), with a positive threshold of 3% CFSE^low for CFSE-proliferation and 1% T cells expressing cytotoxin for ICS. The final value for each subject was derived after subtraction of the subject's medium control and the average value of peptide-stimulated cells from uninfected control subjects.
(§4) Flow cytometry (FACS) for measuring CFSE-proliferation and intracellular cytokine staining (ICS). Carboxyfluorescein diacetate succinimide ester (CFSE)-proliferation analysis was performed according to the manufacturer's protocol (Invitrogen) and processed as previously described (Lichterfeld et al. 2004) using the following modification: 2.5-5.0×10^5 CFSE-labeled PBMC stimulated for 4-5 days (37° C., 5% CO2) with 15-30 μg of peptides in culture media (AIM V medium, 25 μg/mL gentamycin, and 10% heat-inactivated fetal bovine serum). The ICS analysis was performed as previously described (Horton et al. 2007; Pattacini et al. 2012).
(§5) The antibodies used for the proliferation analysis consisted of anti-CD4 allophycocyanin (APC) anti-CD3 APC-H7, and anti-CD8 Pacific Blue, and those for ICS were anti-CD3 APC-H7, anti-CD4 BD Horizon V450, anti-CD8 FITC, anti-granzyme B (GrzB) Alexa 700, anti-granzyme A (GrzA) PE (BD Biosciences, Cat #555349, 560176, 558207, 560345, 555366, 560213, 558904), and anti-perforin PerCP (Abcam, Cat #ab86319). Both analyses were performed with BD LSRII and […]™ Software (BD Biosciences), using a positive threshold of >1% CFSE^low for CFSE-proliferation except for ICS studies with threshold of >0.1% T cells expressing cytotoxin. The final value for each subject was derived after subtracting the result of each HIV^+ subject with the media control followed by subtraction with the average response of the media-control subtracted HIV^− subjects.

[2] = system: CD4+ T cells from HIV+ subjects; assay: Intracellular cytotoxin staining (ICS), CD4+ T cells from HIV+ subjects; set-up: key to CD4^+ T-cell cytotoxins (4C): positive (+); negative (−) response; inhibitory (↓); not done (n); conditions: HIV^+ subjects compared to HIV^− control group
Method: as §1, §2, §3, §4, §5

[3] = system: CD3+CD8+ T cells from HIV+ subjects; assay: CFSE-proliferation, CD3+CD8+ T cells from HIV+ subjects; conditions: positive responses over total tested; F3 responders (H3 responders for H3-3)
Method: 2×10^5-5×10^5 CFSE labeled PBMCs were incubated with 15-20 μg of peptides in 600 μL of RPMI media with 10% FBS for 5 days at 37° C. (5% CO2). After harvesting, they were labeled with allophycocyanin (APC), APC-H7, and Pacific Blue labeled monoclonal antibodies (MAb) to human CD3, CD4, and CD8, respectively and analyzed for T-cell proliferation by flow cytometry using BD LSRII (BD Biosciences). The proliferating CD4^+ or CD8^+ T cell populations were defined from the CD3^+ cell population as either CD3^+CD8^+ or CD3^+CD4^+T cells (mutually exclusive) with low CFSE (CFSE^low) staining.
Flow cytometry (FACS) for carboxyfluoresein diacetate succinimide ester (CFSE)-proliferation and intracellular cytotoxin staining (ICS). The CFSE-proliferation analysis was performed on PBMC according to the manufacturer's protocol (Invitrogen, Carlsbad, Calif.) and processed as previously described (Lichterfeld et al. (2004)). Modifications consisted of using 2.0-5.0×10^5 CFSE-labeled cells stimulated for 5 days (37° C., 5% CO^2) with 30 μg/well of total peptides in a pool (15 μg/well for individual peptide, Table 10) or 5 μg/mL PHA in AIM V medium containing 25 μg/mL of gentamycin and 10% heat-inactivated human serum. Subsequently these cells were harvested and labeled with the LIVE/DEAD fixable yellow dye (Invitrogen) and then treated 5 min with anti-CD16/CD32 antibody (Biolegend, San Diego, Calif.) for blocking non-specific binding before phenotype-specific antibodies. The following antibodies were used for the CFSE-proliferation analysis: anti-CD4 APC, anti-CD3 APC-H7, and anti-CD8 Pacific Blue (BD Biosciences, San Jose, Calif.).
as §3, §4, §5

[4] = system: PBMC from HIV+ subjects; assay: IFNγ ELISpot, PBMC from HIV+ subjects; conditions: positive responses over total tested; F3 responders (H3 responders for H3-3)
Method: 1.0×10^5-2.0×10^5 PBMCs were stimulated with peptides (15 μg peptide/well) in ELISpot plates for 18 hours in AIMS V medium (at 10% normal human serum). The spots were counted with an ELISpot reader and adjusted to spot forming units (SFU) per 10^6 cells.
Positive reactivity was defined at ≥70 SFU/10^6 cells after subtracting the background derived from non-specific peptide control or media control, and the average of 3 HIV-1 negative controls (<30 SFU/10^6 cells).
ELISpot assays. Enzyme-linked immunosorbent spot assays (ELISpot) for IFNγ (R&D Systems, Minneapolis, Minn.) were performed with AIM V medium containing 5% heat-inactivated (56° C., 30 min) human serum as previously described (Abbott et al. (2012)). The PBMC from HIV+ subjects were stimulated with either peptide pool (4-5 consecutive peptides per pool at 5 μg per peptide) or individual peptide (15 μg/well). The peptides were 11-16 aa in length with 8-10 aa overlap. The results were analyzed with an ELISpot reader (MVS Pacific LLC, Minneapolis, Minn.) and adjusted to spot forming units (SFU) per 10^6 cells, after subtraction of the average medium control for each subject. The PBMC from HIV+ subjects were stimulated with T-cell mitogen, phytohemaglutinin A (PHA, 5 μg/mL), as positive control. At a positive threshold of 70 SFU, HIV− subjects had no substantial IFNγ responses (>50 SFU) to HIV and FIV peptide pools.
ELISpot assays. Human enzyme-linked immunosorbent spot assays (ELISpot) (R&D Systems, Cat #XEL285) which measure IFNγ production were performed (Abbott et al. 2011). The positive threshold for human IFNγ responses was >50 spot forming units (SFU)/10^6 cells. The final value for each subject was derived after subtracting the result of each HIV^+ subject with the media control followed by subtraction with the average response of the HIV^− subjects which was rarely more than 10 SFU.

[5] = system: CD4+ or CD8+ T cells from HIV+ subjects; assay: Intracellular cytotoxin staining (ICS), CD4+ or CD8+ T cells from HIV+ responders; conditions: responders to Fp9 or Fp14 peptide pools
Method: Briefly, 1×10^6PBMCs (freshly isolated) are stimulated with 20 μg of peptides for 6 hours in a total volume of 200 μL in a 96-well plate in presence of Golgi transport inhibitor (37° C., 5% CO2). […] Cells were stained with the LIVE/DEAD® fixable yellow dye (Invitrogen, Eugene, Oreg.). […] The flow cytometry data is collected using BD LSRII and analyzed with the FACS DIVA software.
The cells were subsequently fixed and permeabilized with Cytofix/Cytoperm solution (BD Biosciences) before reaction with anti-cytotoxin antibodies. The antibodies consisted of anti-CD3 APC-H7, anti-CD4 BD Horizon V450, and anti-CD8 FITC followed by anti-GrzB Alexa 700 and anti-GrzA PE (all from BD Biosciences), and anti-perforin PerCP (Abcam, Boston, Mass.).
as §3
Flow cytometry (FACS) for measuring CFSE-proliferation and intracellular cytokine staining (ICS).
Both analyses were performed with BD LSRII and […]™ Software (BD Biosciences), using a positive threshold of >1% CFSE^low for CFSE-proliferation except for ICS studies with threshold of >0.1% T cells expressing cytotoxin.

AEVKLYLKQSLSIA [Fp14-3] was tested, and the “cytotoxin expression / CTL-associated activity in CD8+ T cells (in words)” value [1] was “highest frequency and levels”, the “CD8^+ T-cell cytotoxins (8C)” value [1] was “+” and the “HIV+ subjects whose CD8+ T cells responded with one or more cytotoxins” value ([1]; five HIV+ subjects, individual 13-15mer peptides) was “five”. For the same substance, the “CD4^+ T-cell cytotoxins (4C)” value [2] was “+”.
With ASQEVKNWMTETLLV [Hp15-2] the “CD8^+ T-cell cytotoxins (8C)” value [1] was “+” and the “CD4^+ T-cell cytotoxins (4C)” value [2] was “+”.
With CAEV & MVV (KKKSGKWRMLIDFRE) the “CD8^+ T Proliferation (positive/total)” value [3] was 0/5 and the “IFNγ (positive/total)” value [4] was 1/9.
For DQEQNTAEVKLYLK [Fp14-1], the “CD8^+ T-cell cytotoxins (8C)” value [1] was “+”, the Cytotoxins [5] was “High Cytototoxins (The cytotoxin result is considered high when four or five subjects express one or more cytotoxins in the CD8^+ T cells)” and the “CD4^+ T-cell cytotoxins (4C)” value [2] was “+”.
EQNTAEVKLYLKQSL [Fp14-2] was tested, and the “CD8^+ T-cell cytotoxins (8C)” value [1] was “+” and the “CD4^+ T-cell cytotoxins (4C)” value [2] was “+”.
FIV 3-3 (KR9) (KWRMLIDFR) was tested, and the “CD8^+ T Proliferation (positive/total)” value [3] was 0/6 and the “IFNγ (positive/total)” value [4] was 1/9.
FIV 3-3 (WV9) (WRMLIDFRV) was tested, and the “CD8^+ T Proliferation (positive/total)” value [3] was 1/6 and the “IFNγ (positive/total)” value [4] was 8/11.
With FIV F3-3 (KKKSGKWRMLIDFRV) the “CD8^+ T Proliferation (positive/total)” value [3] was 6/9 and the “IFNγ (positive/total)” value [4] was 13/13.
With FIV F3-3 (KV15) (KKKSGKWRMLIDFRV) the “CD8^+ T Proliferation (positive/total)” value [3] was 6/9 and the “IFNγ (positive/total)” value [4] was 13/13.
